The values that follow are results of earlier work, collected in paper PMC11693862 (Acta Biochimica et Biophysica Sinica, 2024).

Data set [1] deals with Mpros of HCoV-NL63, HCoV-HUK1, MERS-CoV, and SARS-CoV. The following applies: cited from earlier work.
Another data set relates to SARS-CoV and HCoV-229E. The conditions noted are these: cited from earlier work.
For data set [2] the following is noted: in vivo; cited from earlier work.

In the case of `COc1cccc2[nH]c(C(=O)NC(CC(C)C)C(=O)NC(CC3CCNC3=O)C(=O)CO)cc12` (stereo not drawn) [PF-00835231], in data set [1], the “Inhibition of Mpros of HCoV-NL63, HCoV-HUK1, MERS-CoV, and SARS-CoV” value is recorded as “inhibits”. The “Antiviral activity, semi-maximum effective concentration (EC50)” value in the data set on SARS-CoV and HCoV-229E was “very low”. In addition, the Oral bio-availability result in data set [2] was “relatively poor”.
